Results: the NIST ThermoML archive (doi:10.1021/je0301500)
Numbers after ± are expanded uncertainties.

Assays:
[1] = 303.15 K; for surface tension liquid-gas: Ring tensiometer; for viscosity / mass density: 101.33 kPa, Liquid; for viscosity: Falling or rolling sphere viscometry; for mass density: Vibrating tube method
[2] = xn = mol fraction of the nth substance listed; details: 303.15 K; for surface tension liquid-gas: Ring tensiometer; for viscosity / mass density: 101.33 kPa, Liquid; for viscosity: Falling or rolling sphere viscometry; for mass density: Vibrating tube method

A surface tension liquid-gas [1] of 23.4 ± 0.47 mN/m, a viscosity [1] of 0.591 ± 0.006 mPa·s and a mass density [1] of 868.21 ± 0.45 kg/m3 were found for `CCCC(=O)OCC` [ethyl butanoate] in this work.
A surface tension liquid-gas ([2]; x1 = 0.05) of 21.86 ± 0.33 mN/m, a surface tension liquid-gas ([2]; x1 = 0.101) of 22.03 ± 0.33 mN/m and a surface tension liquid-gas ([2]; x1 = 0.15) of 22.22 ± 0.34 mN/m were found for `CCCC(=O)OCC` [ethyl butanoate] + CO in this work. The surface tension liquid-gas ([2]; x1 = 0.2) was 22.36 ± 0.34 mN/m, the surface tension liquid-gas ([2]; x1 = 0.299) was 22.65 ± 0.34 mN/m and the surface tension liquid-gas ([2]; x1 = 0.4) was 22.85 ± 0.35 mN/m. For the same compound, the surface tension liquid-gas ([2]; x1 = 0.496) was 22.99 ± 0.35 mN/m, the surface tension liquid-gas ([2]; x1 = 0.605) was 23.12 ± 0.36 mN/m and the surface tension liquid-gas ([2]; x1 = 0.7) was 23.18 ± 0.36 mN/m. It also gave a surface tension liquid-gas ([2]; x1 = 0.8) of 23.29 ± 0.36 mN/m, a surface tension liquid-gas ([2]; x1 = 0.883) of 23.35 ± 0.36 mN/m and a viscosity ([2]; x1 = 0.104) of 0.511 ± 0.004 mPa·s. The viscosity ([2]; x1 = 0.2036) was 0.517 ± 0.004 mPa·s, the viscosity ([2]; x1 = 0.3147) was 0.522 ± 0.004 mPa·s and the viscosity ([2]; x1 = 0.4147) was 0.529 ± 0.004 mPa·s. It also gave a viscosity ([2]; x1 = 0.5064) of 0.535 ± 0.005 mPa·s, a viscosity ([2]; x1 = 0.6226) of 0.543 ± 0.005 mPa·s and a viscosity ([2]; x1 = 0.6976) of 0.551 ± 0.005 mPa·s. For the same compound, the viscosity ([2]; x1 = 0.8054) was 0.565 ± 0.005 mPa·s, the viscosity ([2]; x1 = 0.9004) was 0.577 ± 0.005 mPa·s and the mass density ([2]; x1 = 0.1993) was 820.83 ± 0.18 kg/m3. It also gave a mass density ([2]; x1 = 0.3) of 832.61 ± 0.21 kg/m3, a mass density ([2]; x1 = 0.4) of 841.45 ± 0.24 kg/m3 and a mass density ([2]; x1 = 0.449) of 845.03 ± 0.26 kg/m3. It also gave a mass density ([2]; x1 = 0.474) of 846.71 ± 0.26 kg/m3, a mass density ([2]; x1 = 0.4995) of 848.3 ± 0.27 kg/m3 and a mass density ([2]; x1 = 0.5997) of 853.94 ± 0.31 kg/m3. For the same compound, the mass density ([2]; x1 = 0.65) was 856.33 ± 0.32 kg/m3, the mass density ([2]; x1 = 0.7495) was 860.43 ± 0.36 kg/m3 and the mass density ([2]; x1 = 0.899) was 865.48 ± 0.41 kg/m3. For the same compound, the mass density ([2]; x1 = 0.9001) was 865.54 ± 0.41 kg/m3 and the mass density ([2]; x1 = 0.9465) was 866.88 ± 0.43 kg/m3.
A surface tension liquid-gas ([2]; x2 = 0.018) of 23.46 ± 0.37 mN/m, a surface tension liquid-gas ([2]; x2 = 0.041) of 23.53 ± 0.37 mN/m and a surface tension liquid-gas ([2]; x2 = 0.055) of 23.6 ± 0.37 mN/m were found for `CCCC(=O)OCC` [ethyl butanoate] + O in this work. It also gave a viscosity ([2]; x2 = 0.0128) of 0.587 ± 0.006 mPa·s, a viscosity ([2]; x2 = 0.0319) of 0.584 ± 0.005 mPa·s and a viscosity ([2]; x2 = 0.039) of 0.586 ± 0.005 mPa·s. The viscosity ([2]; x2 = 0.0488) was 0.584 ± 0.005 mPa·s, the viscosity ([2]; x2 = 0.0588) was 0.597 ± 0.006 mPa·s and the mass density ([2]; x2 = 0.019) was 868.19 ± 0.45 kg/m3. For the same compound, the mass density ([2]; x2 = 0.033) was 868.46 ± 0.45 kg/m3, the mass density ([2]; x2 = 0.039) was 868.71 ± 0.45 kg/m3 and the mass density ([2]; x2 = 0.056) was 868.98 ± 0.45 kg/m3.
A surface tension liquid-gas [1] of 21.68 ± 0.43 mN/m, a viscosity [1] of 0.504 ± 0.004 mPa·s and a mass density [1] of 781.91 ± 0.14 kg/m3 were found for `CO` [methanol] in this work.
A mass density ([2]; x2 = 0.1031) of 799.74 ± 0.16 kg/m3, a mass density ([2]; x2 = 0.2055) of 818.52 ± 0.18 kg/m3 and a mass density ([2]; x2 = 0.3014) of 836.97 ± 0.21 kg/m3 were found for `CO` [methanol] + O in this work. It also gave a mass density ([2]; x2 = 0.4013) of 857.06 ± 0.24 kg/m3 and a mass density ([2]; x2 = 0.4994) of 877.48 ± 0.28 kg/m3.
